The record followed here is ChEMBL document CHEMBL3611981, “Discovery of potent nitrotriazole-based antitrypanosomal agents: In vitro and in vivo evaluation” (Bioorg Med Chem, 2015).

Calls of active or inactive are those of the source. The rule behind the calls is not given here.

The nature of data set [1]: Prodrug conversion assessed as Trypanosoma cruzi recombinant type-1 nitroreductase-mediated drug metabolism by measuring NADH oxidation after 5 mins by spectrophotometric analysis. Format: ADME. Conditions: isolated protein.
Data set [2] concerns Mus musculus. Kind of data set: Toxicity in Balb/c mouse at 13 mg/kg/day, ip. Format: organism-based. Conditions: in vivo.
The subject of data set [3] is Trypanosoma cruzi. Kind of data set: Antichagasic activity against trypomastigote stage of Trypanosoma cruzi Brazil infected in Balb/c mouse assessed as reduction in parasite load at 13 mg/kg/day, ip measured after 5 days by luciferase reporter gene assay. It is filed as functional, organism-based. In general terms: Reporter assays use an easily measured gene product as a stand-in for the process of interest.

Data set [4] is described as follows: Prodrug conversion assessed as Trypanosoma brucei recombinant His-tagged type-1 nitroreductase-mediated drug metabolism by measuring NADH oxidation after 5 mins by spectrophotometric analysis. It is filed as ADME. As to conditions: isolated protein.
Data set [5] can be described thus: Efflux ratio of apparent permeability across basolateral to apical side over apical to basolateral side in human Caco2 cells after 2 hrs. As to conditions: Caco-2.
The nature of data set [6]: Half life in human microsomes at 1 uM in absence of NADPH.
Data set [7] can be described thus: Half life in human microsomes at 1 uM in presence of NADPH.
Data set [8] has as its system Trypanosoma brucei rhodesiense. Kind of data set: Antiparasitic activity against trypomastigote stage of Trypanosoma brucei rhodesiense STIB 900 assessed as parasite growth inhibition after 72 hrs by Alamar blue assay. It is filed as functional, organism-based. Conditions: STIB 900, 72 h. (In general: Resazurin is reduced to fluorescent resorufin, in cell work by metabolically active cells.)

Data set [9] in a line: Selectivity index, ratio of IC50 for rat L6 cells to IC50 for axenic amastigote stage of Leishmania donovani MHOM-ET-67/L82.
Data set [10] has as its system Leishmania donovani. The experiment in a line: Antiparasitic activity against axenic amastigote stage of Leishmania donovani MHOM-ET-67/L82 assessed as parasite growth inhibition after 72 hrs by Alamar blue assay. As to conditions: MHOM-ET-67/L82, 72 h. Format: functional, organism-based.
Data set [11] is described as follows: Selectivity index, ratio of IC50 for rat L6 cells to IC50 for amastigote stage of Trypanosoma cruzi Tulahuen C4 infected in rat L6 cells.
Data set [12] deals with L6. Kind of data set: Cytotoxicity against rat L6 cells assessed as growth inhibition after 72 hrs by Alamar blue assay. Format: cell-based. Conditions: L6, 72 h.
Data set [13] deals with Trypanosoma cruzi. Kind of data set: Antiparasitic activity against amastigote stage of Trypanosoma cruzi Tulahuen C4 infected in rat L6 cells assessed as parasite growth inhibition after 96 hrs by beta-galactosidase reporter gene assay. It is filed as functional, organism-based. Conditions: Tulahuen C4, L6, 96 h.
For data set [14], the system named is Leishmania donovani. The experiment in a line: Antileishmanial activity against amastigote stage of Leishmania donovani infected in mouse peritoneal macrophages assessed as reduction in parasite burden after 96 hrs by Giemsa staining method. It is filed as functional, organism-based.
Data set [15] deals with Leishmania donovani. Kind of data set: Potency index, ratio of miltefosine IC50 to compound IC50 for axenic amastigote stage of Leishmania donovani MHOM-ET-67/L82. It is filed as functional.
Data set [16] is described as follows: Cytotoxicity against mouse peritoneal macrophages. As to conditions: Peritoneal macrophage cell. Format: cell-based.
The nature of data set [17]: Selectivity index, ratio of IC50 for rat L6 cells to IC50 for trypomastigote stage of Trypanosoma brucei rhodesiense STIB 900.
Data set [18] has as its system Trypanosoma cruzi. The experiment in a line: Potency index, ratio of benznidazole IC50 to compound IC50 for amastigote stage of Trypanosoma cruzi Tulahuen C4 infected in rat L6 cells. Format: functional.
The subject of data set [19] is Trypanosoma brucei brucei. The experiment in a line: Antiparasitic activity against wild type blood stream form of Trypanosoma brucei brucei after 3 days by Alamar blue assay. Conditions: 72 h. It is filed as functional, organism-based.
For data set [20], the system named is Trypanosoma brucei brucei. Kind of data set: Antiparasitic activity against blood stream form of Trypanosoma brucei brucei overexpressing type-1 nitroreductase after 3 days by Alamar blue assay in absence of tetracycline. Conditions: 72 h. Format: functional, organism-based.
The subject of data set [21] is Trypanosoma brucei brucei. Kind of data set: Antiparasitic activity against blood stream form of Trypanosoma brucei brucei overexpressing type-1 nitroreductase after 3 days by Alamar blue assay in presence of tetracycline. As to conditions: 72 h. It is filed as functional, organism-based.
Data set [22] relates to Trypanosoma brucei brucei. Kind of data set: Ratio of IC50 for blood stream form of Trypanosoma brucei brucei overexpressing type-1 nitroreductase in absence of tetracycline to IC50 for blood stream form of Trypanosoma brucei brucei overexpressing type-1 nitroreductase in presence of tetracycline. Format: functional.

For `O=C(Cn1ccnc1[N+](=O)[O-])NCc1ccccc1` [BENZNIDAZOLE], the results for the Drug metabolism in data set [1] and in [4] were 680 nmol/min/mg and 1540 nmol/min/mg, respectively. In addition, the Activity entry in data set [2] is “Non-toxic”. Besides, in data set [3], the result was Active.

Regarding `CC(C)NCC(O)COc1ccc(CC(N)=O)cc1` (centres undefined) [ATENOLOL], the efflux ratio – broadly, a quotient of directional permeabilities that is used to spot active efflux – at 2 h in [5] turned out to be 3.7.

As for `COc1ccc2c(c1)[C@]13CCCC[C@@H]1[C@H](C2)N(C)CC3` [DEXTROMETHORPHAN], the half-life – broadly, the time in which the quantity being followed falls by half – at 1 µM was 2.57 h in [6] and 1.54 h in data set [7].

As to `O=C(Cn1cncn1)Nc1ccc(Oc2ccc(Cl)cc2)cc1`, the IC50 (usually the concentration that gives 50% inhibition) in [8] turned out to be 26 µM; in data set [10] it was 29 µM; in [12] it was 137 µM; in data set [13], 18 µM. Besides, the selectivity ratio in data set [9] came out at 5; in data set [11] it was 7.5.

`O=C(Cn1cnc([N+](=O)[O-])n1)Nc1cccc(-c2ccccc2)c1`: the half-life at 1 µM was 1.8 h in [6] and 1.06 h in [7]. The IC50 in data set [12] turned out to be 45 µM.

Regarding `O=C(Cn1ccnc1[N+](=O)[O-])Nc1ccc(Oc2ccc(F)cc2)cc1`, the IC50 in data set [14] is 14 µM; in data set [8] it was 13 µM; in data set [16], more than 84 µM; in data set [10], 0.29 µM; in data set [12] it was 123 µM; in data set [13], 3.3 µM. The “Ratio IC50” value in [15] was found to be 0.55; in data set [18], 0.61. The selectivity ratio worked out at 418 in [9], 37 in data set [11] and 9 in data set [17].

In the case of `O=C(Cn1cnc([N+](=O)[O-])n1)Nc1ccc(Cc2ccccc2)cc1`, the IC50 was more than 30 µM in data set [14]; 2.1 µM in data set [8]; more than 89 µM in [16]; 1.2 µM in data set [10]; 36 µM in data set [12]; 0.068 µM in data set [13]. The “Ratio IC50” value in data set [15] is reported as 0.12; in data set [18] it was 34. The figures for the selectivity ratio in data set [9], in data set [11] and in [17] were 31, 528 and 17, respectively.

On to `O=C(Cn1cnc([N+](=O)[O-])n1)Nc1ccc(-c2ccc(Cl)cc2)cc1`, for which the IC50 in data set [14] was more than 84 µM; in data set [16], more than 84 µM; in data set [19] it was 0.69 µM; in data set [10] it was 0.17 µM; in data set [20], 0.69 µM; in [21], 0.85 µM. Besides, the figures for the “Ratio IC50” value in data set [15], in data set [22] and in data set [18] were 0.95, 0.8 and 45, respectively. Further, the selectivity ratio in data set [9] amounted to 738; in data set [11] it was 2800; in [17] it was 140. The values for the Drug metabolism in data set [1] and in data set [4] were 585 nmol/min/mg and 2492 nmol/min/mg, respectively. Moreover, the Activity entry in data set [2] is “Non-toxic”. For the same molecule, the outcome in [3] was Active.

Take `O=C(Cn1ccnc1[N+](=O)[O-])Nc1ccc(Oc2ccccc2)cc1`: the IC50 in data set [14] was 16 µM; in data set [8], 15 µM; in data set [16], more than 89 µM; in [10] it was 0.79 µM; in data set [12], 62 µM; in data set [13] it was 4.2 µM. In addition, the results for the “Ratio IC50” value in data set [15] and in [18] were 0.21 and 0.48, respectively. Also, the selectivity ratio amounted to 79 in [9] and 15 in data set [11].

With `O=C(Cn1ccnc1[N+](=O)[O-])Nc1ccc(Oc2ccc(Cl)cc2)cc1`, the IC50 in data set [14] is 15 µM; in data set [8], 2.6 µM; in data set [16], more than 81 µM; in [19] it was 4.72 µM; in data set [10], 0.14 µM; in [12] it was 127 µM. The IC50 came out at 6.48 µM in data set [20], 1.71 µM in [21] and 2.6 µM in data set [13]. Moreover, the “Ratio IC50” value is reported as 1.2 in [15], 3.8 in data set [22] and 0.78 in [18]. The selectivity ratio in data set [9] turned out to be 937; in data set [11], 49; in data set [17], 50. Further, the Drug metabolism is given as 817 nmol/min/mg in data set [1] and 3337 nmol/min/mg in data set [4].

`O=C(Cn1cnc([N+](=O)[O-])n1)Nc1cccc(OCc2ccccc2)c1`: the IC50 was 4.9 µM in data set [8], 3.4 µM in data set [10], 68 µM in [12] and 0.028 µM in data set [13]. Also, the selectivity ratio in [9] amounted to 20; in data set [11], 2420; in data set [17], 14. Also, the “Ratio IC50” value in data set [18] is 17.

As to `O=C(Cn1cnc([N+](=O)[O-])n1)Nc1nccc(-c2ccccc2)n1`, the IC50 in [8] is 139 µM; in [10], more than 308 µM; in data set [12], 169 µM; in [13] it was 2.5 µM. The selectivity ratio in data set [11] was 66; in data set [17], 1.2. Moreover, the “Ratio IC50” value in [18] was determined as 0.8.

As for `O=C(Cn1cnc([N+](=O)[O-])n1)Nc1ccc(Oc2ccc(F)cc2)cc1`, the IC50 in [14] is more than 28 µM; in data set [8], 2 µM; in data set [16], 84 µM; in data set [19] it was 3.13 µM; in data set [10] it was 0.18 µM; in data set [12], 70 µM. The IC50 in [20] was 3.67 µM; in data set [21], 0.77 µM; in data set [13] it was 0.036 µM. Moreover, the “Ratio IC50” value is given as 0.89 in [15], 4.8 in [22] and 56 in [18]. For the same molecule, the figures for the selectivity ratio in [9], in data set [11] and in data set [17] were 384, 1950 and 35, respectively. Moreover, the Drug metabolism is 516 nmol/min/mg in data set [1] and 2702 nmol/min/mg in data set [4]. The Activity entry in data set [2] is listed as “Non-toxic”. Further, in data set [3], the result was Active.

Take `CC1CS(=O)(=O)CCN1/N=C/c1ccc([N+](=O)[O-])o1` (centres undefined) [NIFURTIMOX]: the IC50 in [20] was determined as 4.41 µM; in [21], 0.43 µM. For the same molecule, the “Ratio IC50” value in data set [22] turned out to be 10.3.

In the case of `CC(C)NCC(O)COc1cccc2ccccc12` (centres undefined) [PROPRANOLOL], the efflux ratio at 2 h in data set [5] is 3.1.

For `CCCCCCCCCCCCCCCCOP(=O)([O-])OCC[N+](C)(C)C` [MILTEFOSINE], in [14], the IC50 was 6.89 µM.

Take `O=C(Cn1cnc([N+](=O)[O-])n1)NC1CCN(Cc2ccccc2)CC1`: the half-maximal inhibitory concentration (IC50) in data set [8] was 12 µM; in data set [10], 133 µM; in data set [12], 114 µM; in data set [13] it was 8 µM. The values for the selectivity ratio in data set [9], in data set [11] and in [17] were less than 1, 14 and 9.6, respectively. For the same molecule, the “Ratio IC50” value in data set [18] was found to be 0.28.

For `O=C(Cn1cnc([N+](=O)[O-])n1)Nc1ccc(Oc2ccccc2)cc1`, the IC50 in [14] is more than 30 µM; in [8], 2.7 µM; in data set [16], 89 µM; in data set [19] it was 1.35 µM; in [10], 0.27 µM; in data set [12], 92 µM. Also, the IC50 in [20] was 2.34 µM; in [21], 1.37 µM; in data set [13], 0.065 µM. The entries for the “Ratio IC50” value in [15], in data set [22] and in data set [18] were 0.6, 1.7 and 31, respectively. The selectivity ratio was 339 in [9], 1420 in data set [11] and 34 in [17]. Moreover, the Drug metabolism in data set [1] is listed as 815 nmol/min/mg; in data set [4] it was 2931 nmol/min/mg.

Regarding `O=C(Cn1cnc([N+](=O)[O-])n1)Nc1ccc(Oc2ccc(Cl)cc2)cc1`, the IC50 was more than 27 µM in data set [14]; 1.3 µM in [8]; 80 µM in [16]; 5.09 µM in data set [19]; 0.034 µM in [10]; 29 µM in data set [12]. The IC50 in [20] was 5.9 µM; in data set [21], 1.18 µM; in data set [13] it was 0.008 µM. Besides, the “Ratio IC50” value was 4.8 in data set [15], 5 in data set [22] and 254 in data set [18]. Also, the selectivity ratio in data set [9] turned out to be 853; in data set [11] it was 3620; in [17], 22. The Drug metabolism was found to be 628 nmol/min/mg in [1] and 2699 nmol/min/mg in data set [4]. In [2], the Activity result was “Non-toxic”. Also, the outcome in [3] was Active.
